Patent US8053439B2, “Benzophenone derivatives useful for inhibiting formation of microtubule” (Chong Kun Dang Pharmaceutical Corp., priority 2006, dated 2011)
Read-outs that look alike come from different tables or passages of the source.

Tested on: HL60 cells
Test: Inhibition effect of HL60 cell line growth (MTT, 3 days)
Type: cell-based
Conditions: Homo sapiens, HL-60, 72 h, read-out: HL60 Growth Inhibition
Experimental: 1. Inhibition Effect of HL60 Cell Line Growth
A 10% FBS-contained RPMI1640 badge was used for culturing HL60 cells. The test substance was prepared by dissolving in DMSO to a concentration of 10 mg/ml, and continuously diluting with PBS to a final concentration of 100 μg/ml to 0.03 μg/ml. In a 96-well microplate, 180 μl of the badge containing 6.0×10^4 cells/ml of cells and 20 μl of continuously diluted test substance were added. The mixture was cultured at 37° C. with 5% CO2 atmosphere for 3 days. After completion of the cultivation, 50 μl of a solution of 1.25 mg/ml MTT (3-(4,5-dimethylthiazol-2-yl)-2,5-diphenyltetrazolium bromide) dissolved in PBS was added to all wells, and the resulting mixture was reacted at 37° C. for 3 hours. Thus formed formazan crystals were dissolved in 150 μl of DMSO, and an absorbance was measured at 570 nm.

[1] = HL60 cells, 3 days culture, MTT, absorbance 570 nm

SMILES | IC50 [1] [nM] | IC50 [nM]
COc1cc(C(=O)c2cc(-c3ncco3)ccc2-n2cncn2)cc(OC)c1OC [Compound 359, (5-(oxazol-2-yl)-2-(H-1,2,4-triazol-1-yl)phenyl)(3,4,5-trimethoxyphenyl)methanone] | 100 | –
COc1cc(C(=O)c2cc(-c3ccc[nH]3)ccc2NCCCO)cc(OC)c1OC [Compound 363, (2-(3-hydroxypropylamino)-5-(1H-pyrrole-2-yl)phenyl)(3,4,5-trimethoxyphenyl)methanone] | 110 | –
COc1cc(C(=O)c2cc(-c3nccs3)ccc2-c2cncnc2)cc(OC)c1OC [Compound 365, (2-(pyrimidin-5-yl)-5-(thiazol-2-yl)phenyl)(3,4,5-trimethoxyphenyl)methanone] | 70 | –
COc1cc(C(=O)c2cc(-c3nccs3)ccc2C(O)CO)cc(OC)c1OC (stereo not drawn) [Compound 372, (2-(1,2-dihydroxyethyl)-5-(thiazol-2-yl)phenyl)(3,4,5-trimethoxyphenyl)methanone] | 110 | –
COC(=O)c1ccc(-c2nccs2)cc1C(=O)c1cc(OC)c(OC)c(OC)c1 [Compound 374, 4-(thiazol-2-yl)-2-(3,4,5-trimethoxybenzoyl)benzoic acid methyl ester] | 100 | –
COc1cc(C(=O)c2cc(-c3nccs3)ccc2-c2cnco2)cc(OC)c1OC [Compound 375, (2-(oxazol-5-yl)-5-(thiazol-2-yl)phenyl)(3,4,5-trimethoxyphenyl)methanone] | 40 | –
COc1cc(C(=O)c2cc(-c3ccco3)ccc2-n2ccnn2)cc(OC)c1OC [Compound 379, (5-(furan-2-yl)-2-(1H-1,2,3,-triazol-1-yl)phenyl)(3,4,5-trimethoxyphenyl)methanone] | 110 | –
COc1cc(C(=O)c2cc(-c3ccccn3)ccc2NCCCO)cc(OC)c1OC [Compound 380, (2-(3-hydroxypropylamino)-5-(pyridin-2-yl)phenyl)(3,4,5-trimethoxyphenyl)methanone] | 110 | –
COc1cc(C(=O)c2cc(-c3cccs3)ccc2-n2cncn2)cc(OC)c1OC [Compound 391, (5-(thiophen-2-yl)-2-(1H-1,2,4,-triazol-1-yl)phenyl)(3,4,5-trimethoxyphenyl)methanone] | 120 | –
COc1cc(C(=S)c2cc(-c3ccco3)ccc2-n2cncn2)cc(OC)c1OC [Compound 399, (5-(furan-2-yl)-2-(1H-1,2,4-triazol-1-yl)phenyl)(3,4,5-trimethoxyphenyl)methanethione] | 110 | –
COc1cc(C(=O)c2cc(-c3nccs3)ccc2-n2cnnn2)cc(OC)c1OC [Compound 401, (2-(1H-tetrazol-1-yl)-5-(thiazol-2-yl)phenyl)(3,4,5-trimethoxyphenyl)methanone] | 30 | –
COc1cc(C(=O)c2cc(-c3ccc[nH]3)ccc2-n2cncn2)cc(OC)c1OC [Compound 409, (5-(1H-pyrrole-2-yl)-2-(1H-1,2,4-triazol-1-yl)phenyl)(3,4,5-trimethoxyphenyl)methanone] | 30 | –
COc1cc(C(=O)c2cc(-c3nccs3)cnc2-n2cncn2)cc(OC)c1OC [Compound 410, (5-(thiazol-2-yl)-2-(1H-1,2,4-triazol-1-yl)pyridin-3-yl)(3,4,5-trimethoxyphenyl)methanone] | 100 | –
COc1cc(C(=O)c2ccc(-c3ccco3)cc2-n2cncn2)cc(OC)c1OC [Compound 443, (4-(furan-2-yl)-2-(1H-1,2,4-triazol-1-yl)phenyl)(3,4,5-trimethoxyphenyl)methanone] | 80 | –
O=C(c1ccc(-c2ccco2)cc1-n1cncn1)c1c(F)c(F)c(F)c(F)c1F [Compound 446, (4-(furan-2-yl)-2-(1H-1,2,4,-triazol-1-yl)phenyl)(pentafluorophenyl)methanone] | 170 | –
COc1cc(C(=O)c2ccc(-c3cncnc3)cc2-n2cncn2)cc(OC)c1OC [Compound 455, (4-(pyrimidin-5-yl)-2-(1H-1,2,4,-triazol-1-yl)phenyl)(3,4,5-trimethoxyphenyl)methanone] | 3100 | –
COc1cc(C(=O)c2ccc(-c3ccccc3O)cc2F)cc(OC)c1OC [Compound 457, (2′-hydroxy-3-(fluoro)biphenyl-4-yl)(3,4,5-trimethoxyphenyl)methanone] | 11600 | –
COc1cc(C(=O)c2ccc(-c3ccsc3)cc2F)cc(OC)c1OC [Compound 458, (2-fluoro-4-(thiophen-3-yl)phenyl)(3,4,5-trimethoxyphenyl)methanone] | 3180 | –
COc1cc(C(=O)c2ccc(-c3ccsc3)cc2-n2cncn2)cc(OC)c1OC [Compound 462, (4-(thiophen-3-yl)-2-(1H-1,2,4,-triazol-1-yl)phenyl)(3,4,5-trimethoxyphenyl)methanone] | 33 | –
COc1cc(C(=O)c2ccc(-c3nccs3)cc2-n2cncn2)cc(OC)c1OC [Compound 464, (4-(thiazol-2-yl)-2-(1H-1,2,4-triazol-1-yl)phenyl)(3,4,5-trimethoxyphenyl)methanone] | 90 | –
COc1cc(C(=O)c2ccc(-c3cccc(NS(C)(=O)=O)c3)cc2-n2cncn2)cc(OC)c1OC [Compound 476, N-(3′-[1,2,4]triazol-1-yl-4′-(3,4,5-trimethoxybenzoyl)biphenyl-3-yl)methanesulfonamide] | 25 | –
CCS(=O)(=O)c1cccc(-c2ccc(C(=O)c3cc(OC)c(OC)c(OC)c3)c(-n3cncn3)c2)c1 [Compound 479, (3′-ethanesulfonyl-3-[1,2,4]triazol-1-yl-biphenyl-4-yl)(3,4,5-trimethoxyphenyl)methanone] | 25 | –
COc1cc(C(=O)c2ccc(-c3nccs3)cc2OS(C)(=O)=O)cc(OC)c1OC [Compound 484, methanesulfonic acid 5-(thiazol-2-yl)-2-(3,4,5-trimethoxybenzoyl)phenyl ester] | 4240 | –
COc1cc(C(=O)c2cc(-c3cccc(NS(C)(=O)=O)c3)ccc2F)cc(OC)c1OC [Compound 486, N-[4′-fluoro-3′-(3,4,5-trimethoxybenzoyl)-biphenyl-3-yl]-methanesulfonamide] | 160 | –
COc1cc(C(=O)c2ccc(-c3cccc(NS(C)(=O)=O)c3)cc2N)cc(OC)c1OC [Compound 494, N-(3′-amino-4′-(3,4,5-trimethoxybenzoyl)-biphenyl-3-yl)methanesulfonamide] | 120 | –
COc1cc(C(=O)c2ccc(-c3cccc(C#N)c3)cc2-n2cncn2)cc(OC)c1OC [Compound 506, 3′-[1,2,4]triazol-1-yl-4′-(3,4,5-trimethoxybenzoyl)-biphenyl-3-carbonitrile] | 160 | –
COc1cc(C(=O)c2ccc(-c3cccnc3)cc2-n2cncn2)cc(OC)c1OC [Compound 511, (4-pyridin-3-yl-2-[1,2,4]thiazol-1-yl-phenyl)(3,4,5-trimethoxyphenyl)methanone] | – | 100
Nc1nc(-c2ccc(C(=O)c3ccccc3)c(-n3cncn3)c2)cs1 [Compound 519, (4-(2-aminothiazol-4-yl)-2-(1H-1,24-triazol-1-yl)phenyl)(phenyl)methanone] | 25000 | –
COc1cc(C(=O)c2ccc(-c3cccc(N)c3)cc2-n2cncn2)cc(OC)c1OC [Compound 525, (3′-amino-3-(1H-1,2,4-triazol-1-yl)biphenyl-4-yl)(3,4,5-trimethoxyphenyl)methanone] | 90 | –
COc1cc(C(=O)c2ccc(-c3c[nH]c(NC(C)=O)n3)cc2-n2cncn2)cc(OC)c1OC [Compound 531, N-(4-(3-(1H-1,2,4-triazol-1-yl)-4-(3,4,5-trimethoxybenzoyl)phenyl)-1H-imidazol-2-yl)acetamide] | 330 | –
